The nature of series [1]: macrolactonisation by intramolecular SN2 of carboxylate on C6 sulfonate (tosylate; one brosylate, one chloride) of glucosamine derivative, K2CO3 2 equiv. The following applies: DMF, 10.0 mM, 75.0 °C.
Series [2] can be described thus: macrolactonisation by intramolecular SN2 of carboxylate on C6 tosylate of GlcNAc derivative, K2CO3 2 equiv. Particulars: MeCN, 6.0 mM, 75.0 °C.

Among the data in paper PMC8199946 are ring closure, isolated yield values, retold here.

Turning to `CC(=O)N[C@H]1[C@H]2OCCn3cc(nn3)CCCCCCCCC(=O)OC[C@@H](O2)[C@@H](OC(=O)c2ccccc2)[C@@H]1OC(=O)c1ccccc1` [8a -> LM28, OBs], the ring closure, isolated yield in series [1] (from CC(=O)N[C@H]1[C@@H](OCCn2cc(CCCCCCCCC(=O)O)nn2)O[C@H](COS(=O)(=O)c2ccc(Br)cc2)[C@@H](OC(=O)c2ccccc2)[C@@H]1OC(=O)c1ccccc1, 20-membered ring, 5.0 h) was 72%. Take `CC(=O)N[C@H]1[C@H]2OCCn3cc(nn3)CCCCCCCCC(=O)OC[C@@H](O2)[C@@H](OC(=O)c2ccccc2)[C@@H]1OC(=O)c1ccccc1` [8b -> LM28, Cl]: in series [1] (from CC(=O)N[C@H]1[C@@H](OCCn2cc(CCCCCCCCC(=O)O)nn2)O[C@H](CCl)[C@@H](OC(=O)c2ccccc2)[C@@H]1OC(=O)c1ccccc1, 20-membered ring, 5.0 h), the ring closure, isolated yield was 67%. With `CC(=O)N[C@H]1[C@H]2OCCn3cc(nn3)CCCCCCCCC(=O)OC[C@@H](O2)[C@@H](OC(=O)c2ccccc2)[C@@H]1OC(=O)c1ccccc1` [8c -> 13c (LM28), OTs], the ring closure, isolated yield in series [1] (from CC(=O)N[C@H]1[C@@H](OCCn2cc(CCCCCCCCC(=O)O)nn2)O[C@H](COS(=O)(=O)c2ccc(C)cc2)[C@@H](OC(=O)c2ccccc2)[C@@H]1OC(=O)c1ccccc1, 20-membered ring, 3.0 h) is 82%. As for `CC(=O)N[C@H]1[C@H]2OCCn3cc(nn3)CCCCCCCCC(=O)OC[C@@H](O2)[C@@H](OC(=O)c2ccccc2)[C@@H]1OC(=O)c1ccccc1` [8c -> LM28 (13c)], the ring closure, isolated yield in series [2] (from CC(=O)N[C@H]1[C@@H](OCCn2cc(CCCCCCCCC(=O)O)nn2)O[C@H](COS(=O)(=O)c2ccc(C)cc2)[C@@H](OC(=O)c2ccccc2)[C@@H]1OC(=O)c1ccccc1, 20-membered ring, 6.0 h) stood at 77%. In the case of `CC(=O)N[C@H]1[C@H]2OCCn3cc(nn3)CCCCC(=O)OC[C@@H](O2)[C@@H](OC(=O)c2ccccc2)[C@@H]1OC(=O)c1ccccc1` [11a -> 13a (LM24)], the ring closure, isolated yield in series [1] (from CC(=O)N[C@H]1[C@@H](OCCn2cc(CCCCC(=O)O)nn2)O[C@H](COS(=O)(=O)c2ccc(C)cc2)[C@@H](OC(=O)c2ccccc2)[C@@H]1OC(=O)c1ccccc1, 16-membered ring, 2.0 h) stood at 88%. `CC(=O)N[C@H]1[C@H]2OCCn3cc(nn3)CCCCCCC(=O)OC[C@@H](O2)[C@@H](OC(=O)c2ccccc2)[C@@H]1OC(=O)c1ccccc1` [11b -> 13b (LM26)]: the ring closure, isolated yield in series [1] (from CC(=O)N[C@H]1[C@@H](OCCn2cc(CCCCCCC(=O)O)nn2)O[C@H](COS(=O)(=O)c2ccc(C)cc2)[C@@H](OC(=O)c2ccccc2)[C@@H]1OC(=O)c1ccccc1, 18-membered ring, 5.0 h) is 76%. Consider `CC(=O)N[C@H]1[C@H]2OCCCn3cc(nn3)CCCCC(=O)OC[C@@H](O2)[C@@H](OC(=O)c2ccccc2)[C@@H]1OC(=O)c1ccccc1` [12a -> 14a (LM34)], for which, in series [1] (from CC(=O)N[C@H]1[C@@H](OCCCn2cc(CCCCC(=O)O)nn2)O[C@H](COS(=O)(=O)c2ccc(C)cc2)[C@@H](OC(=O)c2ccccc2)[C@@H]1OC(=O)c1ccccc1, 17-membered ring, 2.0 h), the ring closure, isolated yield is 88%. Take `CC(=O)N[C@H]1[C@H]2OCCCn3cc(nn3)CCCCCCC(=O)OC[C@@H](O2)[C@@H](OC(=O)c2ccccc2)[C@@H]1OC(=O)c1ccccc1` [12b -> 14b (LM36)]: the ring closure, isolated yield in series [1] (from CC(=O)N[C@H]1[C@@H](OCCCn2cc(CCCCCCC(=O)O)nn2)O[C@H](COS(=O)(=O)c2ccc(C)cc2)[C@@H](OC(=O)c2ccccc2)[C@@H]1OC(=O)c1ccccc1, 19-membered ring, 2.0 h) worked out at 83%. For `CC(=O)N[C@H]1[C@H]2OCCCn3cc(nn3)CCCCCCCCC(=O)OC[C@@H](O2)[C@@H](OC(=O)c2ccccc2)[C@@H]1OC(=O)c1ccccc1` [12c -> 14c (LM38)], the ring closure, isolated yield in series [1] (from CC(=O)N[C@H]1[C@@H](OCCCn2cc(CCCCCCCCC(=O)O)nn2)O[C@H](COS(=O)(=O)c2ccc(C)cc2)[C@@H](OC(=O)c2ccccc2)[C@@H]1OC(=O)c1ccccc1, 21-membered ring, 2.0 h) came out at 83%. Consider `CC(=O)N[C@H]1[C@H]2OCCn3cc(nn3)CCCCc3cn(nn3)CCC(=O)OC[C@@H](O2)[C@@H](OC(=O)c2ccccc2)[C@@H]1OC(=O)c1ccccc1` [15a -> 16a (DM24)], for which the ring closure, isolated yield was 77% in series [2] (from CC(=O)N[C@H]1[C@@H](OCCn2cc(CCCCc3cn(CCC(=O)O)nn3)nn2)O[C@H](COS(=O)(=O)c2ccc(C)cc2)[C@@H](OC(=O)c2ccccc2)[C@@H]1OC(=O)c1ccccc1, 21-membered ring, 11.0 h) and 90% in series [1] (from CC(=O)N[C@H]1[C@@H](OCCn2cc(CCCCc3cn(CCC(=O)O)nn3)nn2)O[C@H](COS(=O)(=O)c2ccc(C)cc2)[C@@H](OC(=O)c2ccccc2)[C@@H]1OC(=O)c1ccccc1, 21-membered ring, 4.0 h). Take `CC(=O)N[C@H]1[C@H]2OCCn3cc(nn3)CCCCCc3cn(nn3)CCC(=O)OC[C@@H](O2)[C@@H](OC(=O)c2ccccc2)[C@@H]1OC(=O)c1ccccc1` [15b -> 16b (DM25)]: the ring closure, isolated yield was determined as 71% in series [2] (from CC(=O)N[C@H]1[C@@H](OCCn2cc(CCCCCc3cn(CCC(=O)O)nn3)nn2)O[C@H](COS(=O)(=O)c2ccc(C)cc2)[C@@H](OC(=O)c2ccccc2)[C@@H]1OC(=O)c1ccccc1, 22-membered ring, 14.0 h) and 88% in series [1] (from CC(=O)N[C@H]1[C@@H](OCCn2cc(CCCCCc3cn(CCC(=O)O)nn3)nn2)O[C@H](COS(=O)(=O)c2ccc(C)cc2)[C@@H](OC(=O)c2ccccc2)[C@@H]1OC(=O)c1ccccc1, 22-membered ring, 2.0 h). For the compound `CC(=O)N[C@H]1[C@H]2OCCCn3cc(nn3)CCCCc3cn(nn3)CCC(=O)OC[C@@H](O2)[C@@H](OC(=O)c2ccccc2)[C@@H]1OC(=O)c1ccccc1` [15c -> 16c (DM34)], the ring closure, isolated yield was 78% in series [2] (from CC(=O)N[C@H]1[C@@H](OCCCn2cc(CCCCc3cn(CCC(=O)O)nn3)nn2)O[C@H](COS(=O)(=O)c2ccc(C)cc2)[C@@H](OC(=O)c2ccccc2)[C@@H]1OC(=O)c1ccccc1, 22-membered ring, 14.0 h) and 85% in series [1] (from CC(=O)N[C@H]1[C@@H](OCCCn2cc(CCCCc3cn(CCC(=O)O)nn3)nn2)O[C@H](COS(=O)(=O)c2ccc(C)cc2)[C@@H](OC(=O)c2ccccc2)[C@@H]1OC(=O)c1ccccc1, 22-membered ring, 2.0 h). As for `CC(=O)N[C@H]1[C@H]2OCCCn3cc(nn3)CCCCCc3cn(nn3)CCC(=O)OC[C@@H](O2)[C@@H](OC(=O)c2ccccc2)[C@@H]1OC(=O)c1ccccc1` [15d -> 16d (DM35)], the ring closure, isolated yield was 74% in series [2] (from CC(=O)N[C@H]1[C@@H](OCCCn2cc(CCCCCc3cn(CCC(=O)O)nn3)nn2)O[C@H](COS(=O)(=O)c2ccc(C)cc2)[C@@H](OC(=O)c2ccccc2)[C@@H]1OC(=O)c1ccccc1, 23-membered ring, 15.0 h) and 78% in series [1] (from CC(=O)N[C@H]1[C@@H](OCCCn2cc(CCCCCc3cn(CCC(=O)O)nn3)nn2)O[C@H](COS(=O)(=O)c2ccc(C)cc2)[C@@H](OC(=O)c2ccccc2)[C@@H]1OC(=O)c1ccccc1, 23-membered ring, 3.0 h). `CO[C@H]1O[C@@H]2COC(=O)CCCCCCCCc3cn(nn3)CC(=O)N[C@@H]1[C@@H](OC(=O)c1ccccc1)[C@@H]2OC(=O)c1ccccc1` [21 -> 22 (C2ML)]: the ring closure, isolated yield in series [1] (from CO[C@H]1O[C@H](COS(=O)(=O)c2ccc(C)cc2)[C@@H](OC(=O)c2ccccc2)[C@H](OC(=O)c2ccccc2)[C@H]1NC(=O)Cn1cc(CCCCCCCCC(=O)O)nn1, 21-membered ring, 2.0 h) is 80%. Turning to `CO[C@H]1O[C@@H]2COC(=O)CCn3cc(nn3)CCCCc3cn(nn3)CC(=O)N[C@@H]1[C@@H](OC(=O)c1ccccc1)[C@@H]2OC(=O)c1ccccc1` [23 -> 24 (C2DLM)], the ring closure, isolated yield in series [1] (from CO[C@H]1O[C@H](COS(=O)(=O)c2ccc(C)cc2)[C@@H](OC(=O)c2ccccc2)[C@H](OC(=O)c2ccccc2)[C@H]1NC(=O)Cn1cc(CCCCc2cn(CCC(=O)O)nn2)nn1, 22-membered ring, 2.0 h) came to 77%.
